Measured values: patent US20030180228A1, “Aerosol container for formulations of salmeterol xinafoate” (priority 2000, published 2003)

Assays:
[1] = Fine particle mass (FPM) by Andersen Cascade Impactor on storage, section A canisters; assay type: physicochemical
Protocol: The FPM of an actuation from an MDI can be calculated based on, for example, the sum of the amount of drug substance deposited on stages 3, 4 and 5 of an Andersen Cascade Impaction stack as determined by standard HPLC analysis.
(§1) In the experiments below canisters were stored in an inverted orientation. Valves all had 63 μl metering volume. Water content was measured ex-valve using Karl-Fischer methodology.
(§2) Aluminium canisters fitted with Valois D60 valve and containing 12 g HFA 134a and 6.53 mg salmeterol xinafoate were stored under various conditions of temperature and humidity and the moisture content measured and FPM measured (Andersen Cascade Impactor), with results as follows:
(§3) Aluminium canisters fitted with Valois DF60 valve and containing 12g HFA 134a and 6.53 mg salmeterol xinafoate were stored under various conditions of temperature and humidity and the moisture content measured and FPM measured (Andersen Cascade Impactor), with results as follows:
(§4) Aluminium canisters fitted with Bespak valve and containing […] and 6.53 mg salmeterol xinafoate were stored under various conditions of temperature and humidity and the moisture content measured and FPM measured (Andersen Cascade Impactor), with results as follows:
(§5) Aluminium canisters fitted with Valois DF60 valve and containing 12g HFA134a and 6.53 mg salmeterol xinafoate were stored under various conditions of temperature and humidity and the moisture content measured and FPM measured (Andersen Cascade Impactor), with results as follows: […]

[2] = Water content of salmeterol xinafoate HFA 134a canisters on storage, ex-valve Karl-Fischer; assay type: physicochemical
Protocol: The water content of the formulation may be determined by conventional Karl Fischer methodology. Typically this involves measuring the total water content of the formulation ex-valve using Couliometric titration.
as §1, §2, §3, §4, §5

[3] = (iii) Valois D60 valve, 30° C./60% RH, 3 months
[4] = (iii) Valois D60 valve, 40° C./75% RH, 1 month
[5] = (iii) Valois D60 valve, 40° C./75% RH, 3 months
[6] = (iii) Valois D60 valve, 40° C./75% RH, Initial
[7] = (iv) Valois DF60 valve, 25° C./60% RH, 1 month
[8] = (iv) Valois DF60 valve, 25° C./60% RH, 3 months
[9] = (iv) Valois DF60 valve, 25° C./60% RH, 6 month
[10] = (iv) Valois DF60 valve, 25° C./60% RH, Initial
[11] = (iv) Valois DF60 valve, 25° C./75% RH, 1 month
[12] = (iv) Valois DF60 valve, 25° C./75% RH, 3 months
[13] = (iv) Valois DF60 valve, 25° C./75% RH, 6 month
[14] = (iv) Valois DF60 valve, 25° C./75% RH, Initial
[15] = (iv) Valois DF60 valve, 40° C./75% RH, 1 month
[16] = (iv) Valois DF60 valve, 40° C./75% RH, 3 months
[17] = (iv) Valois DF60 valve, 40° C./75% RH, 6 month
[18] = (v) Bespak valve, 40° C./75% RH, 3 months
[19] = (vi) Valois DF60 valve, 40° C./75% RH, 3 months
[20] = (vii) Valois DF60 valve, 40° C./75% RH, 3 months

OCc1cc(C(O)CNCCCCCCOCCCCc2ccccc2)ccc1O (stereo not drawn) [salmeterol xinafoate, 4-Hydroxy-α^1-[[[6-(4-phenylbutoxy)hexyl]amino]methyl]-1,3-benzenedimethanol]
FPM [1, 3]: 7.9 µg | FPM ([1]; (iii) Valois D60 valve, 30° C./60% RH, Initial): 10.3 µg | FPM [1, 4]: 8.2 µg | FPM [1, 5]: 6.2 µg | FPM [1, 6]: 10.3 µg | FPM [1, 7]: 8.4 µg | FPM [1, 8]: 8.3 µg | FPM [1, 9]: 7.5 µg | FPM [1, 10]: 9.4 µg | FPM [1, 11]: 8.4 µg | FPM [1, 12]: 8.0 µg | FPM [1, 13]: 7.2 µg | FPM [1, 14]: 9.4 µg | FPM [1, 15]: 7.8 µg | FPM [1, 16]: 6.0 µg | FPM [1, 17]: 6.2 µg | FPM ([1]; (iv) Valois DF60 valve, 40° C./75% RH, Initial): 9.4 µg | FPM [1, 18]: 7.0 µg | FPM ([1]; (v) Bespak valve, 40° C./75% RH, Initial): 11.3 µg | FPM [1, 19]: 6.7 µg | FPM ([1]; (vi) Valois DF60 valve, 40° C./75% RH, Initial): 9.5 µg | FPM [1, 20]: 7.4 µg | FPM ([1]; (vii) Valois DF60 valve, 40° C./75% RH, Initial): 9.6 µg | Water content ([2]; (iii) Valois D60 valve, 6.53 mg in 12 g HFA 134a, 30° C./60% RH, Initial): 92 ppm | Water content [2, 3]: 463 ppm | Water content [2, 4]: 412 ppm | Water content [2, 5]: 616 ppm | Water content [2, 6]: 92 ppm | Water content ([2]; (iv) Valois DF60 valve, 6.53 mg in 12 g HFA 134a, 40° C./75% RH, Initial): 81 ppm | Water content [2, 7]: 194 ppm | Water content [2, 8]: 405 ppm | Water content [2, 9]: 446 ppm | Water content [2, 10]: 81 ppm | Water content [2, 11]: 217 ppm | Water content [2, 12]: 434 ppm | Water content [2, 13]: 485 ppm | Water content [2, 14]: 81 ppm | Water content [2, 15]: 360 ppm | Water content [2, 16]: 540 ppm | Water content [2, 17]: 526 ppm | Water content ([2]; (v) Bespak valve, 6.53 mg in HFA 134a, 40° C./75% RH, Initial): 118 ppm | Water content [2, 18]: 457 ppm | Water content ([2]; (vi) Valois DF60 valve, 6.53 mg in 12 g HFA 134a, 40° C./75% RH, Initial): 213 ppm | Water content [2, 19]: 746 ppm | Water content ([2]; (vii) Valois DF60 valve, 6.53 mg in 12 g HFA134a, 40° C./75% RH, Initial): 181 ppm | Water content [2, 20]: 668 ppm
